In brackets after ≈: the same amount, converted by molar mass.
Assays:
[1] = test system: sweet potato root knot nematode (M. incognita) 2nd stage juveniles; assay: organism not typed; conditions: for LC50: Meloidogyne incognita, read-out: LC50 M. incognita 72 h
Experimental: The three layers were finally applied at concentrations of 15.6, 31.3, 62.5, 125, 250, 500, or 1,000 μg/ml. As a control group, treatment with 1% acetone and methanol was carried out, and, after the treatment, the 96-well plate was shaken for 30 seconds so that the test compound is mixed well. Thereafter, the plate was added to a plastic container having relative humidity of 100% and stored at room temperature. To obtain eggs of a root knot nematode from roots of tomato infected by root knot nematode, plant roots were washed with tap water to remove adhering soil and cut into 1 cm pieces. Eggs were extracted in 0.5% sodium hypochlorite solution for 1 min and collected by passage through 45 and 25 μm sieves. Second-stage juveniles (J2) were allowed to hatch in modified Baermann funnels at 20° C.
Ninety nine μl of 50 2nd stage juveniles of sweet potato root knot nematode were added to each well of a 96-well plate, and then, according to a treatment of 1% solvent extract, the final volume per well was adjusted to 100 μl. […] 72 Hours after the treatment with a test compound, mortality was determined under an optical inverted microscope by using the equation shown below. As for the mortality, the linear nematode showing no movement was taken as dead nematode, the nematode showing movement of flexible curve was taken as live nematode, and the mortality was examined using the following equation. Mortality (%)=[Mortality percentage in treatment−mortality percentage of negative control/(100−mortality percentage in negative control)]×100
To determine the mortality and activity of inhibiting egg hatching of the purified compound, the compound was dissolved in methanol and trans-cinnamaldehyde as a control agent was dissolved in ethanol and used for the experiment. […] Furthermore, the activity of inhibiting egg hatching of sweet potato root knot nematode (M. incognita) was also examined at the same concentration. As a non-treatment group, 1% methanol and ethanol were used, and, according to the method explained above, the mortality and activity of inhibiting egg hatching were examined. The experiments were carried out in triplicate. The mortality was determined 3 days after the treatment of a test compound while the rate of inhibiting egg hatching was determined 14 days after the treatment of a test compound. The rate of inhibiting egg hatching was calculated based on the following equation. Egg hatching inhibitory activity (%)=[(C−T)/C]×100,

[2] = test system: carrot root knot nematode (M. hapla) 2nd stage juveniles; assay: Mortality against 2nd stage juveniles of carrot root knot nematode; parameters: species or system Meloidogyne hapla; conditions: 72 h; for LC50: 2nd stage juveniles
[3] = test system: eggs of sweet potato root knot nematode (M. incognita); assay: Egg hatching inhibitory activity against sweet potato root knot nematode; parameters: species or system Meloidogyne incognita; conditions: 336 h, 14 days after treatment, read-out: Rate of inhibiting egg hatching; for inhibition at 3.1 µg/mL: 3.1 μg/ml; for inhibition at 25 µg/mL: 25 μg/ml
Experimental: The experiments were carried out in triplicate. […] Egg hatching inhibitory activity (%)=[(C−T)/C]×100,
C=Egg hatching rate of control group*, T=Egg hatching rate of treatment group *Egg hatching rate (%)=Number of juveniles/[Number of egg+Number of juveniles]×100

colon cancer cell SW.71 = assay: MTT cell viability assay (human cytotoxicity); conditions: for Cytotoxicity, in words: test concentration 0.1 to 10 μg/ml; for Cytotoxicity, in words / Cell viability compared to the non-treatment group: 24 hours
Experimental: The colon cancer cell SW.71 as a cell line used for the experiment was kept in −196° C. liquid nitrogen tank until use. The colon cancer cell SW.71 was added, in RPMI-1640 (Life Technologies Inc., USA) medium, with 10% FBS (fetal bovine serum, Gibco) and 1% penicillin-streptomycin, cultured for 72 hours in an incubator at condition of 37° C., 5% CO2, and then used. As for the MTT reagent, thiazolyl blue tetrazolium bromide was used, and, after dissolving it in PBS (phosphate buffer saline) to have final concentration of 5 mg/ml, it was kept at 4° C. under light-shielding condition. The colon cancer cell SW.71 was inoculated, in an amount of 130 μl, to a 96-well plate to have concentration of 5×10^3 or 1×10^4 cells/well. […] After culturing the cells for 24 hours, the MTT solution was added in an amount of 14.5 μl for each well followed by culture for 2 hours or longer at 37° C. The medium was carefully removed and DMSO was added in an amount of 108.5 μl per well to terminate the reaction followed by stirring using a plate shaker for 30 minutes at room temperature, dark conditions. Thereafter, by using a microplate ELISA reader, absorbance at a wavelength of 540 nm was measured, and the cell viability after culture for 24 hours was examined. For the non-treatment group, 1% MeOH was added to a DMEM medium. All the experiments were repeated in triplicate.

For `O=C1C=C2C(O)C=COC2O1` (stereo not shown) [grammicin], the “Mortality against root knot nematodes, in words (summary)” value [1] was “very high mortality”, the mortality at 12.5 µg/mL ([1]; 72 h) was 52.8% and the mortality at 50 µg/mL ([1]; 72 h) was 100%. The LC50 ([1]; 72 h) was 15.9 µg/mL (≈ 103 µM), the mortality at 25 µg/mL ([2]; 25 μg/ml, 3 days after treatment) was 62.4% and the mortality at 50 µg/mL ([2]; 50 μg/ml, 3 days after treatment) was 100%. The LC50 [2] was 3.12 µg/mL (≈ 20.2 µM), the inhibition at 3.1 µg/mL [3] was 68.2% and the inhibition at 25 µg/mL [3] was 91.4%. For the same compound, the “Cytotoxicity for colon cancer cells, in words (summary)” value (colon cancer cell SW.71; at a test concentration) was “no toxicity”, the “Cytotoxicity, in words” value (colon cancer cell SW.71; 1×10^4 cells/well) was “no cytotoxicity” and the “Cytotoxicity, in words” value (colon cancer cell SW.71; 5×10^3 cells/well) was “no cytotoxicity”.
`O=C1C=C2C(=CCOC2O)O1` (stereo not shown) [patulin] was tested, and the “Mortality against root knot nematodes, in words (summary)” value [1] was “almost no activity”, the mortality at 100 µg/mL [1] was 38.7% and the “Cell viability compared to the non-treatment group” value (colon cancer cell SW.71; 0.1 μg/ml, 1×10^4 cells/well) was 66.2%. The “Cell viability compared to the non-treatment group” value (colon cancer cell SW.71; 0.1 μg/ml, 5×10^3 cells/well) was 72.2%, the “Cell viability compared to the non-treatment group” value (colon cancer cell SW.71; 0.5 μg/ml, 1×10^4 cells/well) was 80.5% and the “Cell viability compared to the non-treatment group” value (colon cancer cell SW.71; 0.5 μg/ml, 5×10^3 cells/well) was 72.1%. For the same compound, the “Cell viability compared to the non-treatment group” value (colon cancer cell SW.71; 1 μg/ml, 1×10^4 cells/well) was 75.3%, the “Cell viability compared to the non-treatment group” value (colon cancer cell SW.71; 1 μg/ml, 5×10^3 cells/well) was 42.1% and the “Cell viability compared to the non-treatment group” value (colon cancer cell SW.71; 5 μg/ml, 1×10^4 cells/well) was 58.4%. The “Cell viability compared to the non-treatment group” value (colon cancer cell SW.71; 5 μg/ml, 5×10^3 cells/well) was 43.5%, the “Cell viability compared to the non-treatment group” value (colon cancer cell SW.71; 10 μg/ml, 1×10^4 cells/well) was 27.6% and the “Cell viability compared to the non-treatment group” value (colon cancer cell SW.71; 10 μg/ml, 5×10^3 cells/well) was 31.4%.
For `O=C/C=C/c1ccccc1` [trans-cinnamaldehyde], the LC50 ([1]; 72 h) was 18.3 µg/mL (≈ 139 µM), the LC50 [2] was 8.56 µg/mL (≈ 64.8 µM) and the inhibition at 3.1 µg/mL [3] was 31.3%. The inhibition at 25 µg/mL [3] was 65%.

Source: patent US11000039B2, “Composition for controlling nematode comprising grammicin compound as effective ingredient and uses thereof” (INDUSTRY FOUNDATION OF CHONNAM NATIONAL UNIVERSITY, priority 2016, dated 2021)
